Data published in patent publication US20160115540A1, “PRODRUGS AND DRUGS” (Biogen MA Inc., priority 2013, published 2016).
Counter-ions that a name gives are not always drawn.

Tested on: liver
Test: Transcriptional profiling on Affymetrix GeneChips, single dose, naïve mice: liver
Assay type: in vivo, C57BL/6 mice
Details: liver
Experimental: Treated mice were sacrificed at 2, 7, or 12 hours. Tissues (liver, spleen, kidney, jejunum, cortex, hippocampus, striatum and whole blood) were collected and analyzed by transcriptional profiling on mouse Affymetrix GeneChips.
Tissues (liver, spleen, kidney, jejunum, cortex, hippocampus, striatum and whole blood) were collected and analyzed by transcriptional profiling on mouse Affymetrix GeneChips.
Animals were exposed to CO2 and whole blood collected via cardiac puncture. Two 100 μl aliquots of whole blood were collected in 1.5 mL microcentrifuge tubes and snap frozen in liquid nitrogen. Peripheral (liver, spleen, kidney and jejunum) and CNS brain (cerebellum, hippocampus, striatum and cortex) tissues were harvested and snap frozen in liquid nitrogen, with special care taken to collect tissues of similar size and from the same location. All samples were stored at −80° C. until RNA extraction was conducted.
For RNA preparation, frozen tissues were placed in 2 mL RNAse-free 96-well blocks with 1.5 mL QIAzol Lysis Reagent (QIAgen) and a 3.2 mm stainless steel bead (BioSpec Products, Bartlesville, Okla.). Tissues were disrupted for four cycles of 45 seconds in a Mini-Beadbeater (Biospec Products). RNA was extracted in chloroform and the aqueous phase was mixed with an equal volume of 70% ethanol. Extracted RNA was applied to RNeasy 96 plates and purified by the spin method according to the manufacturer's protocol (RNeasy 96 Universal Tissue Protocol, QIAgen, Hilden Germany).
Automated sample amplifications and biotin labelings were carried out using the NuGEN Ovation RNA Amplification system V2 (Cat #3100), Ovation WB reagent (Cat #1300) and Encore Biotin module (Cat #4200) (NuGEN Technologies, Inc, San Carlos, Calif.) according to manufacturer's recommendations using an Arrayplex automated liquid handler (Beckman Coulter, Indianapolis, Ind.). Two micrograms of biotin labeled sscDNA probe were hybridized to Affymetrix GeneChip Affymetrix HT_MG-430_PM plate arrays with modified conditions as described in Allaire et al. Washing and staining of the hybridized arrays were completed as described in the GeneChip Expression analysis technical manual for HT plate arrays using the Genechip® Array Station (Affymetrix, Santa Clara, Calif.) with modifications as described in Allaire et al. The processed GeneChip® plate arrays were scanned using GeneTitan scanner (Affymetrix, Santa Clara, Calif.).
Affymetrix scans were subject to quality control (QC) measures. These tests included a visual inspection of the distribution of raw signal intensities and an assessment of RNA degradation, relative log expression (RLE), and normalized unsealed standard error (NUSE). All sample scans that passed these QC metrics were included in the analysis.
All CEL files were subjected to GC-content-based Robust Multi-array Average (GCRMA) normalization (version 2.20.0) (Irizarry R A, et al. Nucleic Acids Res 2003; 31:e15; Li C, et al. Genome Biol 2001; 2:[…]0032). Expression levels were log (base 2) transformed.
All calculations and analyses were carried out using R (version 2.11.1) and Bioconductor computational tools (Gentleman R. Springer Science+Business Media 2005).

[1] = 100 mg/kg, 7 hr, vs matched vehicle controls
[2] = 100 mg/kg, 12 hr, vs matched vehicle controls

In the case of `COC(=O)/C=C/C(=O)O` [MMF, monomethyl fumarate], the “Murine Liver DEGs: Srxn1 (1419942_PM_at)” value (100 mg/kg, 2 hr, vs matched vehicle controls) is reported as 1.68, the “Murine Liver DEGs: Akr1b8 (1448894_PM_at)” value [1] is reported as 1.75 and the “Murine Liver DEGs: Bmp6 (1450759_PM_at)” value [1] is reported as 1.65. For the same compound, the “Murine Liver DEGs: Cda (1427357_PM_at)” value [1] was 1.92, the “Murine Liver DEGs: Clec4n (1419627_PM_s_at)” value [1] was 2.40 and the “Murine Liver DEGs: Erc2 (1434582_PM_at)” value [1] was −1.95. For the same compound, the “Murine Liver DEGs: Fzd8 (1445815_PM_at)” value [1] was −1.81, the “Murine Liver DEGs: G6pdx (1448354_PM_at)” value [1] was 1.61 and the “Murine Liver DEGs: Irak3 (1435040_PM_at)” value [1] was 1.53. The “Murine Liver DEGs: Marco (1449498_PM_at)” value [1] was 2.44, the “Murine Liver DEGs: Nqo1 (1423627_PM_at)” value [1] was 2.20 and the “Murine Liver DEGs: Pir (1429001_PM_at)” value [1] was 1.50. The “Murine Liver DEGs: Srxn1 (1419942_PM_at)” value [1] was 1.52, the “Murine Liver DEGs: Ablim1 (1453103_PM_at)” value [2] was −1.51 and the “Murine Liver DEGs: Atp6v0d2 (1444176_PM_at)” value [2] was 1.84. For the same compound, the “Murine Liver DEGs: Car3 (1460256_PM_at)” value [2] was −1.57, the “Murine Liver DEGs: Ccnf (1443807_PM_x_at)” value [2] was 1.57 and the “Murine Liver DEGs: Clmn (1439117_PM_at)” value [2] was −1.54. For the same compound, the “Murine Liver DEGs: Ctla2a (1448471_PM_a_at)” value [2] was 1.63, the “Murine Liver DEGs: Dnajc12 (1417441_PM_at)” value [2] was 2.53 and the “Murine Liver DEGs: Fndc3b (1433833_PM_at)” value [2] was 1.66. For the same compound, the “Murine Liver DEGs: Gadd45b (1450971_PM_at)” value [2] was 1.50, the “Murine Liver DEGs: Gm3579 (1431214_PM_at)” value [2] was 2.74 and the “Murine Liver DEGs: Hyou1 (1423290_PM_at)” value [2] was 1.82. For the same compound, the “Murine Liver DEGs: Lrrc59 (1416235_PM_at)” value [2] was 1.65, the “Murine Liver DEGs: Nme6 (1448574_PM_at)” value [2] was 1.57 and the “Murine Liver DEGs: Ppapdc1b (1428154_PM_s_at)” value [2] was 1.87. The “Murine Liver DEGs: Ppm1k (1441988_PM_at)” value [2] was −1.56, the “Murine Liver DEGs: Prtn3 (1419669_PM_at)” value [2] was 4.46 and the “Abcc1 (probe set 1452233_PM_at) differential expression” value (2 hr) was 1.86. The “Akr1b8 (probe set 1448894_PM_at) differential expression” value (2 hr) was 2.27, the “Ampd3 (probe set 1422573_PM_at) differential expression” value (2 hr) was 1.70 and the “Caprin1 (probe set 1448348_PM_at) differential expression” value (2 hr) was −1.56. The “Clec4d (probe set 1420804_PM_s_at) differential expression” value (2 hr) was 2.05, the “Cmah (probe set 1447019_PM_at) differential expression” value (2 hr) was −1.55 and the “Csnk2a1 (probe set 1419038_PM_a_at) differential expression” value (2 hr) was −1.62. For the same compound, the “Figf (probe set 1438953_PM_at) differential expression” value (2 hr) was 2.25, the “Fxr1 (probe set 1452247_PM_at) differential expression” value (2 hr) was −1.53 and the “Gclc (probe set 1424296_PM_at) differential expression” value (2 hr) was 1.72. For the same compound, the “Hmox1 (probe set 1448239_PM_at) differential expression” value (2 hr) was 2.41, the “Meis2 (probe set 1440091_PM_at) differential expression” value (2 hr) was −1.67 and the “Mkln1 (probe set 1416734_PM_at) differential expression” value (2 hr) was −1.69. For the same compound, the “Pgd (probe set 1436771_PM_x_at) differential expression” value (2 hr) was 1.61, the “Ppfibp2 (probe set 1417801_PM_a_at) differential expression” value (2 hr) was 2.55 and the “Prpf38b (probe set 1455016_PM_at) differential expression” value (2 hr) was −1.53. For the same compound, the “Ptprb (probe set 1453908_PM_at) differential expression” value (2 hr) was −1.76, the “Ptprg (probe set 1456070_PM_at) differential expression” value (2 hr) was −1.85 and the “Srxn1 (probe set 1419942_PM_at) differential expression” value (2 hr) was 1.68. For the same compound, the “Akr1b8 (probe set 1448894_PM_at) differential expression” value (7 hr) was 1.75, the “Bmp6 (probe set 1450759_PM_at) differential expression” value (7 hr) was 1.65 and the “Cda (probe set 1427357_PM_at) differential expression” value (7 hr) was 1.92. For the same compound, the “Clec4n (probe set 1419627_PM_s_at) differential expression” value (7 hr) was 2.40, the “Erc2 (probe set 1434582_PM_at) differential expression” value (7 hr) was −1.95 and the “Fzd8 (probe set 1445815_PM_at) differential expression” value (7 hr) was −1.81. The “G6pdx (probe set 1448354_PM_at) differential expression” value (7 hr) was 1.61, the “Irak3 (probe set 1435040_PM_at) differential expression” value (7 hr) was 1.53 and the “Marco (probe set 1449498_PM_at) differential expression” value (7 hr) was 2.44. For the same compound, the “Nqo1 (probe set 1423627_PM_at) differential expression” value (7 hr) was 2.20, the “Pir (probe set 1429001_PM_at) differential expression” value (7 hr) was 1.50 and the “Srxn1 (probe set 1419942_PM_at) differential expression” value (7 hr) was 1.52. For the same compound, the “Ablim1 (probe set 1453103_PM_at) differential expression” value (12 hr) was −1.51, the “Atp6v0d2 (probe set 1444176_PM_at) differential expression” value (12 hr) was 1.84 and the “Car3 (probe set 1460256_PM_at) differential expression” value (12 hr) was −1.57. The “Ccnf (probe set 1443807_PM_x_at) differential expression” value (12 hr) was 1.57, the “Clmn (probe set 1439117_PM_at) differential expression” value (12 hr) was −1.54 and the “Ctla2a (probe set 1448471_PM_a_at) differential expression” value (12 hr) was 1.63. The “Dnajc12 (probe set 1417441_PM_at) differential expression” value (12 hr) was 2.53, the “Fndc3b (probe set 1433833_PM_at) differential expression” value (12 hr) was 1.66 and the “Gadd45b (probe set 1450971_PM_at) differential expression” value (12 hr) was 1.50. For the same compound, the “Gm3579 (probe set 1431214_PM_at) differential expression” value (12 hr) was 2.74, the “Hyou1 (probe set 1423290_PM_at) differential expression” value (12 hr) was 1.82 and the “Lrrc59 (probe set 1416235_PM_at) differential expression” value (12 hr) was 1.65. For the same compound, the “Nme6 (probe set 1448574_PM_at) differential expression” value (12 hr) was 1.57, the “Ppapdc1b (probe set 1428154_PM_s_at) differential expression” value (12 hr) was 1.87 and the “Ppm1k (probe set 1441988_PM_at) differential expression” value (12 hr) was −1.56. For the same compound, the “Prtn3 (probe set 1419669_PM_at) differential expression” value (12 hr) was 4.46.
